# Source: US6451828B1, “Selective inhibition of glutaminase by bis-thiadiazoles” (priority 2000, dated 2002)
# System: microglia (BV-2) cells
# Assay: Inhibition of microglial glutamate secretion
# Type: cell-based
# Details: not given
# Experimental: As described in Wood, glutamate efflux from microglia is dependent on the presence of added external glutamine. […] Therefore, the concentration of glutamate in the culture medium can be used directly as a measure of glutamate production by these cells.
# In assaying the invention compounds, microglia (BV-2) cells were cultured using standard methods, as described in Example 4. On the day of the experiment, cells were incubated in glutamine free medium for 1 to 1.5 hours, then glutamine and test compounds, dissolved in glutamine free medium, were added. Aliquots were removed at 2 h and 4 h for glutamate analysis.
# Inhibition of Microglial Glutamate Secretion
# BV-2 cells were cultured in 24 well plates using Dulbeccos minimal essential medium containing 10% heat inactivated fetal bovine serum, and grown to 70-80% confluency before use. On the day of the experiment, cells were placed in glutamine free medium for 1 to 1.5 hours. […] This solution was used to replace one half of the 0.5 mL culture medium volume at the end of the glutamine free incubation. Aliquots of 10 μL medium were removed at 2 h and 4 h and placed in 96 well microtiter plates with 90 μL DMF/water (1:9) for glutamate analysis.
row,Compound,Glutamine dependent glutamate efflux from microglia
1,"[N-]=[N+]=CC(=O)CC[C@H](N)C(=O)O [DON, 6-diazo-5-oxo-L-norleucine, reference compound]",inhibited

# Target: T1, human kidney glutaminase (Homo sapiens, UniProt O94925)
# T1 construct: made in house; host or cells: SF9 insect cells (alternatively HEK human kidney cells); cell lysate
# T1 sequence (O94925 55-669): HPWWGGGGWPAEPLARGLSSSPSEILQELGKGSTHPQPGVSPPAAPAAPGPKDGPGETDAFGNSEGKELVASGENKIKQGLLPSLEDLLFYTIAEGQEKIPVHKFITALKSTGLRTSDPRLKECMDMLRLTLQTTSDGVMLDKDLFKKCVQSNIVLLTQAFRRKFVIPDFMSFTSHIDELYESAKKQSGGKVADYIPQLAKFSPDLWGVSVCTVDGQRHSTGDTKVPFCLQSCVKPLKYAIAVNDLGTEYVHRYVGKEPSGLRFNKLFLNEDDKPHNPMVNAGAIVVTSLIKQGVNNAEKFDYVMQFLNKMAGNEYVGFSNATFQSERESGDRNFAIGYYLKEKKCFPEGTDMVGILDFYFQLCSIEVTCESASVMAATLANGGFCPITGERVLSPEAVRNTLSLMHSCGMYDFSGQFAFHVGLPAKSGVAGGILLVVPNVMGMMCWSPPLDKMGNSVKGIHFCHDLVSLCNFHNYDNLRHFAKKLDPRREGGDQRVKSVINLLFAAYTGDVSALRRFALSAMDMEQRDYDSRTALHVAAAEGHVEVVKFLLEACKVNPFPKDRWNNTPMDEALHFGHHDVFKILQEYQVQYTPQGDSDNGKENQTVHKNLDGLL
# Assay: Glutaminase inhibition: cell free assay
# Type: biochemical
# Details: not given
# Experimental: Compounds of formula I were tested for inhibition of human kidney glutaminase as described in Example 2.
# Glutaminase Inhibition: Cell Free Assay
# Glutaminase gene-transfected SF9 cells were collected in a 50-mL polypropylene conical tube by centrifugation at 500×g for 10 min (Eppendorf Centrifuge 5810R, F34-6-38 rotor). The supernatant was discarded, and the cell pellet was stored at −80° C. For preparation of the lysate, the cells were thawed on ice and resuspended by pipetting in 0.8 mL cold lysis buffer with 0.5 mM 4-(2-aminoethyl)- benzenesulfonyl fluoride (AEBSF), a serine protease inhibitor. The suspension was stored in ice for 20 min, then subjected to two freeze-thaw cycles (liquid nitrogen followed by a room temperature water bath).
# The volume of the cell homogenate was measured, and 1/3 volume of 1 M sucrose was added, to give a final concentration of 0.25 M sucrose. Aliquots 100 μL in volume were placed in 1.5 mL microtubes and stored at −80° C.
# Alternatively, HEK (human kidney) cells were used. The medium was removed by aspiration, 5 mL PBS/1 mM EDTA was added, and the culture was incubate for 3 min to allow cells to detach. The cells were collected in a 50-mL conical tube using Eppendorf Centrifuge 5810R, F34-6-38 rotor, and spun at 200×g for 5 min. The supernatant was discarded, and the cell pellet was resuspended pipetting (approximately 0.12 g wet weight) in 0.3 mL lysis buffer with 0.5 mM AEBSF. The tube was left in ice for 20 min. […] subjected to two freeze-thaw cycles as described above. Aliquots 100 μL in volume were placed in 1.5 mL microtubes and stored at −80° C.
# The activity of the enzyme was determined colorimetrically. One unit of enzyme activity is defined as the amount of enzyme required to generate net OD 540nm=0.6 in a total reaction volume of 220 μL in one hour at room temperature.
# Assay plates were prepared containing 2 μL test compound in DMSO/well. The enzyme was diluted to 1 unit (liver) or 0.8 unit (kidney)/100 μL in glutaminase assay buffer, and 100 μl diluted enzyme was added to each well of the assay plate by Multidrop (Labsystems). The contents were mixed by shaking at full speed for 1 min on TiterMix 100 (Brinkmann). The plates were preincubated at room temperature (RT) for 20 min to allow binding of test compounds to glutaminase, and 50 μL glutamine solution (7 mM in assay buffer) was added to each well by Multidrop. The contents were shaken at full speed for 30 sec on TiterMix 100 (Brinkmann), and the plates were then incubated at RT for 60 min (liver) or 90 min (kidney). To stop the reactions, 20 μL HCl (0.3 N) was added to each well by Multidrop and mixed immediately by shaking for 30 sec on TiterMix 100.
# For quantification, glutamate (formed by glutaminase-catalyzed hydrolysis of glutamine) is oxidized to 2-oxoglutarate by a second enzyme, glutamate dehydrogenase (GDH), with the concomitant production of the reduced form of nicotinamide adenine dinucleotide (NADH). Reduction of nitro blue tetrazolium (NBT) in the assay solution by NADH, catalyzed by phenazine methosulphate (PMS), results in the formation of a blue-purple formazan. The absorption of formazan at 540 nm is linearly proportional to the concentration of glutamate up to 200 μM.
# NBT/GDH reagent (50 μl) was added to each well by Multidrop and mixed by shaking for 30 sec on TiterMix 100, and the plates were incubated at RT for 20 min to allow color formation by the GDH reaction. Glutamate concentration was determined from formazan concentration as determined by reading OD540 nm on a SpectraMax 340.
row,Compound,IC50 [nM]
1,CCOC(=O)Nc1nnc(CCSCCc2nnc(NC(=O)OCC)s2)s1 [SNX-1852],1780
2,O=C(Nc1nnc(CCSCCc2nnc(NC(=O)c3cccs3)s2)s1)c1cccs1 [SNX-1837],390
3,O=C(Nc1nnc(CCSCCc2nnc(NC(=O)c3ccccc3)s2)s1)c1ccccc1 [SNX-1830],1060
4,COc1ccc(C(=O)Nc2nnc(CCSCCc3nnc(NC(=O)c4ccc(OC)cc4)s3)s2)cc1 [SNX-1832],460
5,Cc1cccc(C(=O)Nc2nnc(CCSCCc3nnc(NC(=O)c4cccc(C)c4)s3)s2)c1 [SNX-1831],1130
6,COc1ccccc1C(=O)Nc1nnc(CCSCCc2nnc(NC(=O)c3ccccc3OC)s2)s1 [SNX-1855],4900
7,O=C(Nc1nnc(CCSCCc2nnc(NC(=O)c3ccco3)s2)s1)c1ccco1 [SNX-1836],1120
8,CC(C)(C)C(=O)Nc1nnc(CCSCCc2nnc(NC(=O)C(C)(C)C)s2)s1 [SNX-1851],1650

# System: isolated neurons
# Assay: not given
# Details: Dugan et al., 1995; read-out: IC50 for toxicity on isolated neurons; cited from earlier work
row,Compound,IC50 [nM]
1,N[C@@H](CCC(=O)O)C(=O)O [glutamate],5000 to 10000
